Test results from patent US20260144769A1, “4-PHENYLBUTYRATE RESTORED GABA UPTAKE AND REDUCED SEIZURES IN SLC6A1 VARIANT-MEDIATED DISORDERS” (Vanderbilt University, priority 2022, published 2026).

Target: GAT-1 L460R (Rattus norvegicus, UniProt P23978, L460R)
Experiment: 3H GABA uptake, HEK293T, mutant cDNA alone ("homozygous")
Format: cell-based
Parameters: The coding region of rGAT-1 was inserted into pEYFP-C1 (Clontech, Palo Alto, CA); expressed in transfected cells; host or cells: HEK293T cells
Settings: PBA 2 mM, 24 hrs
Procedure: GABA uptake activity was measured by the high-throughput 3H radio-labeling GABA uptake on a liquid scintillator with QuantaSmart. […] HEK293T cells were transfected with the wildtype or the mutant GAT-1^YFP cDNAs alone for 48 hr. […] HEK293T cells were transfected with the wildtype GAT-1^YFP alone or in mixture of the wildtype or the mutant cDNAs for 48 hr. In the mixed condition, the ratio of the wildtype GAT-1 with pcDNA or the mutant cDNAs are 1:1 with the total cDNA amount of 0.5 μg. […] Both wt and the mutant were normalized to its own DMSO treated conditions. 966 stands for the wildtype treated with CI-966 (50 μM) while 711 stands for NNC-711 (35 μM). (N=4-7 different transfections. In FIG. 4A and FIG. 4B, *P<0.05, **P<0.01, ***p<0.001 vs. wt 0. In FIG. C and FIG. 4D, *P<0.05, **P<0.01, ***p<0.001 vs. its own DMSO treated. In FIG. 4C, ns stands for no significance. One-way analysis of variance (ANOVA) and Newman-Keuls test. Values were expressed as mean±S.E.M.
The plasmid cDNA encoding enhanced yellow fluorescent protein (EYFP)-tagged rat GAT-1 has been previously described. […]
Briefly, cells were cultured in […] dishes for 3 days before the GABA uptake experiment in DMEM with 10% fetal bovine serum and 1% penicillin/streptomycin. […] Glacial acetic acid was added, and lysates were then determined on a liquid scintillator with QuantaSmart. […]

GABA uptake normalized to its own DMSO treated condition: 1.14±0.07
Compound: O=C(O)CCCc1ccccc1 [PBA, 4-phenylbutyric acid]
